In US9617330B2, “Chemorepulsion of cells” (Celtaxsys, Inc., priority 2006, dated 2017):

What was measured:
[1] = system: Human primary CD4+ lymphocytes; test: Trans-well migration assay (Example 3 method), unimodal fugetaxin test; type: cell-based; parameters: key: A “+” in the Table indicates a positive hit as a unimodal fugetaxin, as that term is defined herein, for that particular cell type; conditions: methods of Example 3
[2] = system: Human primary neutrophils; test: as above; type: cell-based; parameters: key to Unimodal fugetaxin hit, Neutrophils: A “+” in the Table indicates a positive hit as a unimodal fugetaxin, as that term is defined herein, for that particular cell type; conditions: human neutrophils; methods of Example 3
[3] = system: Eo-HL60 (HL-60 clone 15 differentiated to eosinophil-like phenotype); test: Trans-well migration assay (Example 1), net migratory response; type: cell-based, human; conditions: net observed response
Neutrophils = test: High throughput transmigration assay (Example 9), chemorepulsion; type: cell-based, human; conditions: Neutrophils; mean of three donors at concentration of highest activity; range 0.00125-1.25 μM
CD4+ = test: as above; type: cell-based, human; conditions: mean of three donors at concentration of highest activity, range 0.00125-1.25 μM
Excerpt: (§1) An agent's repellent index is the ratio of chemorepulsion (CR) to spontaneous migration (SM) induced by the agent, i.e., [(CR)/(SM)]. […] For example, in calculating a RI for an agent, migratory responses including chemorepulsion (CR) and spontaneous migration (SM) may be measured over several decades or log scales of concentration. If, over any two consecutive measurements at concentrations which differ by at least 10 fold, the ratio of CR to SM at each of the two contiguous measurements is equal to or greater than 1.2, then the agent is considered a validated chemorepellent.
(§2) For primary human T cells, up to 80 ml of blood is drawn from a human donor in sodium heparin Vacutainer tubes (Becton-Dickinson). The blood (between 10 and 15 ml per tube) is then layered onto 30 ml of Lymphocyte Separation Medium (LSM) (Cellgro, Herndon, Va.) in a 50 ml conical centrifuge tube and centrifuged for 20 minutes at 2440×g in a swinging bucket rotor. After removing the majority of the plasma from the top of each tube, the peripheral blood mononucleocyte (PBMC) layer is removed and transferred to fresh 50 ml conical centrifuge tubes. The tubes are then filled to 50 ml with IMDM and centrifuged for 10 minutes at 500×g. All but approximately 5 ml of the supernatant is then removed and the pellet resuspended with 25 ml IMDM and the centrifugation repeated. After removal of the supernatant, the cells are resuspended and combined to one 50 ml tube (per subject) and brought to a total volume of 50 ml. The cells are then counted using a hemacytometer (Reichert). After centrifugation under the same conditions, the supernatant is removed and the cells processed using the appropriate Miltenyi Biotec (Auburn, Calif.) negative selection kit to enrich for the desired cell type according to manufacturers instructions. The resulting purified cells are then diluted to 50 ml with IMDM. After centrifugation at 500×g for 10 minutes, the supernatant is removed and the cells resuspended in 15 ml IMDM supplemented with 0.5% heat inactivated fetal calf serum (FCS) (ATCC, Manassas, Va.). After another centrifugation for 10 minutes at 500×g, the supernatant is again removed and the cells resuspended in 7 ml 0.5% FCS in IMDM (assay medium) and transferred to a 15 ml conical centrifuge tube. The cells are then quantitated using a hemacytometer. When enriching for monocytes, the concentration of cells is adjusted to 2×10^7 per ml by centrifugation and removal of the appropriate volume of assay medium. For all other cell types, the tube cap is replaced with one from a 25 cm^2 tissue culture flask (Corning) and the cells stored overnight in a humidified 37° C. incubator with 5% CO2. The concentration of the cells is adjusted as for monocytes just prior to transmigration assay of Example 9.
(§3) Migration away from a chemical or biological agent (chemorepulsion (CR)) was measured using ChemoTx plates (Neuroprobe). These plates contain a planar polycarbonate or polyester membrane that has been etched and perforated so that cells can move along the etched tracks and fall through perforation holes, enabling the cells to be collected and the number of migrated cells quantified (FIGS. 5-6). Several dilutions (normally 4 in 10-fold increments) are prepared of the agent of interest. For neutrophils, plates with 3 μm pore membranes are used, while for all other primary cell types, 5 μm pore membranes are used. Membranes may, or may not, be coated with polyvinylpyrrolidine (PVP) as a wetting agent.
(§4) For spontaneous migration controls and chemorepulsion (CR) assays, 31 μl of assay medium is pipetted into the lower well of the transmigration apparatus (FIGS. 5-6). For spontaneous migration controls and chemoattraction (CA) assays, 29 μl of assay medium is pipetted into upper chamber of the transmigration apparatus (FIG. 5). For CR, the upper well assay medium contains the agent or candidate chemorepellent. […]

CD8+ = test: as above; type: cell-based, human; conditions: mean of three donors at concentration of highest activity, range 0.00125-1.25 μM
Excerpt: as §1, §2, §3, §4

T lymphocytes = test: as above; type: cell-based, human; conditions: one donor, triplicate, ± SD
Excerpt: as §1, §2, §3, §4

Substance: HSP70: heat shock protein; accession AAA02807
- Unimodal fugetaxin hit, CD4+ [1]: +
- Unimodal fugetaxin hit, Neutrophils [2]: +
- Migratory Response [3]: chemorepulsion
- Repellent Index (Neutrophils): 8.8
- Repellent Index (CD4+): 4.9
- Repellent Index (CD8+): 11.6
- Repellent Index (T lymphocytes; 0.00125 μM): 0.96 ± 0.13
- Repellent Index (T lymphocytes; 0.0125 μM): 1.15 ± 0.24
- Repellent Index (T lymphocytes; 0.125 μM): 1.65 ± 0.35
- Repellent Index (T lymphocytes; 1.25 μM): 14.56 ± 0.61
